From paper PMC8347595, “N-Skatyltryptamines—Dual 5-HT6R/D2R Ligands with Antipsychotic and Procognitive Potential” (Molecules, 2021)
Like-named read-outs stand apart in the source and are kept apart here.

Tests used:
Male CD1 mice = assay: MK-801-induced hyperactivity in mice; assay type: in vivo; conditions: i.p.; for reversal of MK-801-elevated activity: MK-801 0.35 mg/kg, 15: 0.5, 1, 3 mg/kg, 18: 0.05-3 mg/kg
Description: Animals. Male CD1 mice (Charles River, Germany) weighing 20–25 g at the time of arrival were used in behavioral experiments. Animals were kept under standard laboratory conditions (12:12 light: dark cycle, 22 ± 2 °C) with free access to food and water. Animal welfare has been regularly controlled by a veterinarian and animal welfare committee. After two weeks of acclimatization and handling, the experiments began. Experimental groups consisted of four to 10 animals, depending on the procedure. Drugs were administered intraperitoneally (i.p.) at a volume of 10 mL/kg. Experimental assessments were performed by an observer who was blinded to the treatment conditions. All procedures were conducted in accordance with the European Communities Council Directive of 22 September 2010 (2010/63/EU) and Polish legislation acts concerning animal experimentation and were approved by the II Local Ethics Committee by the Maj Institute of Pharmacology, Polish Academy of Sciences in Krakow (272/2019).
Drugs. MK-801 was purchased from Tocris Bioscience, Bristol, UK. MK-801 was dissolved in 0.9% NaCl. Compounds 15 and 18 were dissolved in 0.9% NaCl. All compounds were administered intraperitoneally (i.p.) in a volume of 10 mL/kg. Vehicle-treated animals received appropriate solvents. Vehicle was administered to animals in any case when drug administration was omitted (e.g., control or MK-801-treated groups).
The locomotor activity was recorded individually for each animal in locomotor activity cages (according to Rorick-Kehn et al., 2007a,b), with modifications (Wieronska et al., 2012). The mice were placed individually into activity cages (13 × 23 × 15 cm; Opto-M3; Columbus Instruments) for an acclimatization period of 30 min; then they were injected i.p. with compound 15 (0.5, 1, 3 mg/kg) or compound 18 (0.05, 0.1, 0.5, 1, 3 mg/kg) and placed again in the same cages. After 30 min, all of the mice were injected i.p. with MK-801 at 0.35 mg/kg and once again placed in the same cage. From then on, the ambulation scores were counted for 60 min. All of the groups were compared with the MK-801 control group. […]

CYP3A4 = target: T1, CYP3A4 (Homo sapiens, UniProt P08684); assay: CYP3A4 P450-Glo luminescent assay; assay type: in vitro ADME; conditions: compared to ketoconazole; 0.01 to 25 µM
T1 construct: purchased Promega (Madison, WI, USA)
Description: The experiments were provided using commercially available luminescent CYP3A4 P450-Glo™ and CYP2D6 P450-Glo™ tests purchased from Promega (Madison, WI, USA). The enzymatic reactions were conducted in polystyrene, flat-bottom Nunc™ MicroWell™ 96-well microplates (Thermo Scientific, Waltham, MA, USA). The assays were carried out according to the procedures provided by the manufacturer, as described previously. Compounds were tested in triplicate at the final concentrations in a range from 0.01 to 25 µM for both isoforms of CYP450. The references of CYP3A4 and CYP2D6 inhibitors (ketoconazole and quinidine, respectively) were tested in a range from 0.001 to 10 µM. Tested compounds were incubated in 100 mM Tris-HCl buffer separately with CYP3A4 and CYP2D6 membranes and the NADPH Regeneration System for 30 min at room temperature in triplicate. The bioluminescent signal was measured after the addition of the Luciferin Detection Reagent by using a microplate reader EnSpire PerkinElmer (Waltham, MA, USA). Both reagents (NADPH Regeneration System and Luciferin Detection Reagent) were purchased from Promega (Madison, WI, USA).

5-HT2AR = 5-HT2AR (Homo sapiens, UniProt P28223); assay: Radioligand binding assay, [3H]-ketanserin displacement; set-up: host or cells: CHO-K1; membrane preparation; conditions: Table 1
D2R [1] = target: T2, D2R (Homo sapiens, UniProt P14416); assay: Radioligand binding assay, [3H]-raclopride displacement
5-HT1AR = target: T3, 5-HT1AR (Homo sapiens, UniProt P08908); assay: Radioligand binding assay, [3H]-8-OH-DPAT displacement
T3 sequence (P08908 1-422): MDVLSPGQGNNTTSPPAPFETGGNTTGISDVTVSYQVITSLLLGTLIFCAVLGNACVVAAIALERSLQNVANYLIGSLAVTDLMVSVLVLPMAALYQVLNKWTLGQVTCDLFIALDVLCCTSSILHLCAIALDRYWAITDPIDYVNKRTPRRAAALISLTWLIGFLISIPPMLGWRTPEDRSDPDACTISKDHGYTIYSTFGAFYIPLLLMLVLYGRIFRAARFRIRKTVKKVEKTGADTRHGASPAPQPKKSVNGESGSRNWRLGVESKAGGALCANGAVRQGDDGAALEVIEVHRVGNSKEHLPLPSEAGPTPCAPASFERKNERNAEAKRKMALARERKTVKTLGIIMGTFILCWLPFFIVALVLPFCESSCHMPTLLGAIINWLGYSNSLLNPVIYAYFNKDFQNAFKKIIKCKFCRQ

D2R [2] = target: T2, D2R; assay: D2R functional assay, antagonist mode (cAMP, HEK293 cells); assay type: cell-based; set-up: expressed in transfected cells
Description: The supernatant was aspirated, and the cell pellet was resuspended in stimulation buffer (1 × HBSS, 5 mM HEPES, 0.5 mM IBMX, 0.1% BSA).
The functional properties of compounds were evaluated using the LANCE Ultra cAMP Detection Kit (PerkinElmer). D2 receptors in HEK293 cells are coupled to Gi subtype and decreased cAMP production. […] Each compound was tested in triplicate at eight concentrations (10^−11–10^−4 M).
For quantification of cAMP levels, cells (5 µL) were incubated with 5 µL mixture of compounds (tested ligand and forskolin with 100 nM quinpirole for antagonist binding mode) for 30 min at room temperature in 384-well white opaque microtiter plate (PerkinElmer). After incubation, the reaction was stopped and cells were lysed by the addition of 10 µL working solution (5 µL Eu-cAMP and 5 µL ULight-anti-cAMP). The assay plate was incubated for 1 h at room temperature. Time-resolved fluorescence resonance energy transfer (TR-FRET) signal was detected by an Infinite M1000 Pro (Tecan) using instrument settings from the LANCE Ultra cAMP Detection Kit manual.

5-HT7R = 5-HT7R (Homo sapiens, UniProt P34969); assay: Radioligand binding assay, [3H]-5-CT displacement
5-HT7R, sequence (P34969 1-432): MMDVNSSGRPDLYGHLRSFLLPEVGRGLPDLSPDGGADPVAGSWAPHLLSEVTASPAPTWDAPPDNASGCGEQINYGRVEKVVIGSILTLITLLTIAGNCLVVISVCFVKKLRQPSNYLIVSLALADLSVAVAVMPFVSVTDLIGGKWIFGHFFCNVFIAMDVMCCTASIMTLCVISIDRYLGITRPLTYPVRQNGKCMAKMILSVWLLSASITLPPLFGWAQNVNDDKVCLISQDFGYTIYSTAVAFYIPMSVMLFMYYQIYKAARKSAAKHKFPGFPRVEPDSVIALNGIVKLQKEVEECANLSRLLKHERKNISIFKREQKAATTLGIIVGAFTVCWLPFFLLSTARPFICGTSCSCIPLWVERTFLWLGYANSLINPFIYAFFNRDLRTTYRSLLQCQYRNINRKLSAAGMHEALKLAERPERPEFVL

T2 sequence (P14416 whole entry): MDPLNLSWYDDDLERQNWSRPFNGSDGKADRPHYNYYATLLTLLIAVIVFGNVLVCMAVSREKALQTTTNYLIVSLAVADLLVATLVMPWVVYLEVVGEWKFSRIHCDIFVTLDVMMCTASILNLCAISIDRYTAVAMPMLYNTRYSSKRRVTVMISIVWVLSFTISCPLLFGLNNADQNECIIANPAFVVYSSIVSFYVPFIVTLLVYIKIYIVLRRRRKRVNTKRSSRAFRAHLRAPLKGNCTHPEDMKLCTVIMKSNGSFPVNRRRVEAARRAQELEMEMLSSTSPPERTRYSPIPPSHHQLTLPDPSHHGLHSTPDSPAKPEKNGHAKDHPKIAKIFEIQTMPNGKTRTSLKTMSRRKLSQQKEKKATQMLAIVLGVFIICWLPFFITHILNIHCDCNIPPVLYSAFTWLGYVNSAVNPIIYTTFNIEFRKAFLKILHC
5-HT2AR, sequence (P28223 whole entry): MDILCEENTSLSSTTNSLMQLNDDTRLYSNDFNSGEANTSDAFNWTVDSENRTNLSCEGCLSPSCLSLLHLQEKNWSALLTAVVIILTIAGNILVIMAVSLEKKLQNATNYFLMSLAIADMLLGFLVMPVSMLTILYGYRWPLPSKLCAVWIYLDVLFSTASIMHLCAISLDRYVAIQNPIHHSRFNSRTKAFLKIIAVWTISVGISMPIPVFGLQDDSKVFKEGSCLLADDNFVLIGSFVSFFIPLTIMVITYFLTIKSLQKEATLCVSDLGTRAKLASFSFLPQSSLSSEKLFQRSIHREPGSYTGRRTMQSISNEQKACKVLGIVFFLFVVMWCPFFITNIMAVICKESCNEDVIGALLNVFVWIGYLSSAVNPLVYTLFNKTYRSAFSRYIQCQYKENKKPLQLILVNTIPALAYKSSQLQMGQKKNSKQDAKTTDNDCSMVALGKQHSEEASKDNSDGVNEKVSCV
T1 sequence (P08684 whole entry): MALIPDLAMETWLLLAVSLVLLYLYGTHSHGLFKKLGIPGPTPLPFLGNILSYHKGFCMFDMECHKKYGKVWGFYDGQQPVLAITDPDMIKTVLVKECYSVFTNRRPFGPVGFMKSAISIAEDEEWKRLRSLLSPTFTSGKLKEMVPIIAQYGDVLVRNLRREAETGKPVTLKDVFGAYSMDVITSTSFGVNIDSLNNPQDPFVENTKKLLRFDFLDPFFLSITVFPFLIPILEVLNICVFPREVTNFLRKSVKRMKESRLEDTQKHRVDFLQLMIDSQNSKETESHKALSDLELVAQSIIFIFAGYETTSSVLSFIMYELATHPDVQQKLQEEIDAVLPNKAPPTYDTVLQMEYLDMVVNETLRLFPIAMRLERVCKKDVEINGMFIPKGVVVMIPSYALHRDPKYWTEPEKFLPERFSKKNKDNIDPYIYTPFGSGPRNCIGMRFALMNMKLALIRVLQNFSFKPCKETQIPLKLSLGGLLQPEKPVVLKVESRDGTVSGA

Structure (SMILES): Brc1ccc2c(CNCCc3c[nH]c4ccccc34)c[nH]c2c1 [Compound 15]
- exacerbation of MK-801 hyperactivity (Male CD1 mice; 3 mg/kg): not statistically significant
- reversal of MK-801-elevated activity (Male CD1 mice): did not reverse the locomotor activity elevated by the administration of MK-801
- effect on CYP3A4 activity (CYP3A4): only slightly inhibited
- Ki (5-HT2AR; read-out: pKi 5-HT2A (converted)): 4070 nM
- Ki (D2R [1]; Ki D2, Figure 8): 290 nM
- Ki (D2R [1]; pKi D2, Table 1): 288 nM
- Ki (5-HT1AR; pKi 5-HT1A, Table 1): 977 nM
- Kb (D2R [2]; antagonistic mode, 100 nM quinpirole, read-out: D2 Kb): 109 nM
- EC50 (D2R [2]; read-out: EC50 (D2 receptor, antagonistic function)): 109 nM
- Ki (5-HT7R): 4680 nM

Structure (SMILES): Brc1cccc2c(CNCCc3c[nH]c4ccccc34)c[nH]c12 [Compound 18]
- reversal of MK-801-elevated activity (Male CD1 mice): did not reverse the locomotor activity elevated by the administration of MK-801
- effect on CYP3A4 activity (CYP3A4): only slightly inhibited
- Ki (5-HT2AR; pKi 5-HT2A): 3980 nM
- Ki (D2R [1]; Ki D2, Figure 8): 55 nM
- Ki (D2R [1]; pKi D2, Table 1): 55 nM
- Ki (5-HT1AR): 302 nM
- Kb (D2R [2]): 167 nM
- Ki (5-HT7R): 1320 nM
